Holding throughout (format): cell-based
Assay [1] relates to HCV 2a Rluc cells (NS5A chimeric genotype 2a JFH-1 replicon with genotype 2a J6 strain NS5A gene, M31 present). In words: HCV replicon reporter assay, genotype 2a J6 (M31 present). The settings on record: Hepatitis C virus, read-out: 2a J6. Put shortly:
(§1)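 Renilla luciferase HCV replicon cells: dicistronic 1b Con1, 1a H77 or 2a JFH-1 replicons, or a JFH-1 chimera carrying J6 NS5A (M31 present). Compound in DMSO serial dilutions, 72 h incubation, then lysis and luciferase read. EC50 by non-linear regression.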

The test system of assay [2] is HCV 2a JFH-1 Rluc cells (dicistronic genotype 2a JFH-1 replicon, RLuc reporter). Put plainly: microbe, parasite or virus in culture. The settings on record: Hepatitis C virus, genotype 2a JFH-1 RLuc replicon; read-out: 2a JFH. An outline of the steps:
as §1
For orientation: Replicon systems follow genome replication, usually without infectious particles.

Assay [3] deals with HCV 1b RLuc cells (dicistronic genotype 1b Con1 replicon, RLuc reporter). Put plainly: microbe, parasite or virus in culture. The settings on record: Hepatitis C virus, read-out: 1b (nM). Put shortly:
as §1

The test system of assay [4] is HCV 4a Rluc cells (NS5A chimeric genotype 1b Con1 replicon with genotype 4a NS5A gene). Put plainly: microbe, parasite or virus in culture. The note with it: Hepatitis C virus, read-out: 4a. An outline of the steps:
(§2)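 Replicon cells stably carrying the listed RLuc-encoding dicistronic replicons were seeded and treated with DMSO serial dilutions of compound (10 mM stocks) diluted into culture medium. After 72 h, cells were lysed and Renilla luciferase activity measured. EC50 was derived by non-linear regression.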

For assay [5], the system named is HCV 2b Rluc cells (NS5A chimeric genotype 2a JFH-1 replicon with genotype 2b MD2b-1 NS5A gene, M31 present). In words: microbe, parasite or virus in culture. The settings on record: Hepatitis C virus, read-out: 2b. An outline of the steps:
as §2

The subject of assay [6] is HCV 1a RLuc cells (dicistronic genotype 1a H77 replicon, RLuc reporter). Put plainly: microbe, parasite or virus in culture. The settings on record: Hepatitis C virus, genotype 1a H77 RLuc replicon; read-out: 1a. An outline of the steps: as §1
The test system of assay [7] is HCV 3a RLuc cells (NS5A chimeric genotype 1b Con1 replicon with consensus genotype 3a NS5A gene). Put plainly: microbe, parasite or virus in culture. The note with it: Hepatitis C virus, read-out: 3a, genotype 3a NS5A chimeric replicon. Put shortly:
as §2

Molecules are shown by their SMILES.

Take `CC[C@H](C)[C@H](NC(=O)OC)C(=O)N1[C@@H]2C[C@@H]2C[C@H]1c1nc2ccc3cc(-c4ccc5c(ccc6nc([C@@H]7C[C@H](COC)CN7C(=O)[C@H](NC(=O)C7CC7)c7ccccc7)[nH]c65)c4)ccc3c2[nH]1` [Example 531]: the EC50 in assay [1] was 0.001 to 0.999 nM; in assay [2], 0.001 to 0.999 nM; in assay [3], 0.018 nM; in assay [4] it was 0.001 to 0.99 nM; in assay [5], 0.001 to 0.999 nM; in assay [6], 0.001 to 0.999 nM.

For the molecule `COC[C@H]1C[C@@H](c2ncc(-c3ccc4c(c3)COc3cc5c(ccc6nc([C@@H]7C[C@H](COC(F)F)CN7C(=O)[C@@H](NC(=O)OC)C(C)C)[nH]c65)cc3-4)[nH]2)N(C(=O)[C@@H](NC(=O)OC)C(C)C)C1` [Example 634], the EC50 in assay [1] was 0.001 to 0.999 nM; in assay [2], 0.001 to 0.999 nM; in assay [3], 0.015 nM; in assay [5] it was 0.001 to 0.999 nM; in assay [6], 0.001 to 0.999 nM.

For the molecule `CC[C@H](C)[C@H](NC(=O)OC)C(=O)N1CCC[C@H]1c1ncc(-c2ccc(-c3ccc4c(ccc5nc([C@@H]6C[C@H](COC)CN6C(=O)[C@H](NC(=O)C6CC6)c6ccccc6)[nH]c54)c3)cc2)[nH]1` [Example 534], the EC50 in assay [1] is 0.001 to 0.999 nM; in assay [2], 0.001 to 0.999 nM; in assay [3], 0.011 nM; in assay [4], 0.001 to 0.99 nM; in assay [5], 0.001 to 0.999 nM; in assay [6], 0.001 to 0.999 nM.

`COC(=O)N[C@H](C(=O)N1CCC[C@H]1c1ncc(-c2cc3c4c(c2)OCc2cc(-c5cnc([C@@H]6CCCN6C(=O)[C@H](NC(=O)c6ccccn6)c6ccccc6)[nH]5)cc(c2-4)OC3)[nH]1)C(C)C` [Example 522]: the EC50 in assay [1] is greater than 44 nM; in assay [2], 0.001 to 0.999 nM; in assay [3] it was 0.023 nM; in assay [4], 0.001 to 0.99 nM; in assay [5], 0.001 to 0.999 nM; in assay [6] it was 0.001 to 0.999 nM.

On to `COC(=O)NC(C(=O)N1C[C@@H](C)C[C@H]1c1nc2ccc3cc4c(cc3c2[nH]1)OCc1cc(-c2cnc([C@@H]3CC[C@H](C)N3C(=O)[C@@H](NC(=O)OC)C(C)C)[nH]2)ccc1-4)[C@H](C)OC` (some centres unmarked) [Example 621], for which the EC50 in assay [1] is 0.001 to 0.999 nM; in assay [2] it was 0.001 to 0.999 nM; in assay [3], 0.013 nM; in assay [5], 0.001 to 0.999 nM; in assay [6] it was 0.001 to 0.999 nM.

Take `COC(=O)N[C@H](C(=O)N1CCC[C@H]1c1nc2ccc3cc(-c4ccc5c(ccc6nc([C@@H]7C[C@H](COC(F)F)CN7C(=O)[C@H](NC(=O)OC)c7ccccc7)[nH]c65)c4)ccc3c2[nH]1)C(C)C` [Example 528]: the EC50 in assay [1] was 0.001 to 0.999 nM; in assay [2], 0.001 to 0.999 nM; in assay [3], 0.01 nM; in assay [4], 0.001 to 0.99 nM; in assay [5] it was 0.001 to 0.999 nM; in assay [6] it was 0.001 to 0.999 nM.

Take `COC(=O)N[C@H](C(=O)N1CCC[C@H]1c1ncc(-c2cc3c4c(c2)OCc2cc(-c5cnc([C@@H]6CCCN6C(=O)[C@H](NC(=O)C6CC6)c6ccccc6)[nH]5)cc(c2-4)OC3)[nH]1)C(C)C` [Example 520]: the EC50 in assay [1] was 0.001 to 0.999 nM; in assay [2] it was 0.001 to 0.999 nM; in assay [3] it was 0.033 nM; in assay [4], 0.001 to 0.99 nM; in assay [5] it was 0.001 to 0.999 nM; in assay [6], 0.001 to 0.999 nM.

Take `COC[C@H]1C[C@@H](c2nc3ccc4cc5c(cc4c3[nH]2)OCc2cc(-c3ccc4nc([C@@H]6CCCN6C(=O)[C@@H](NC(=O)OC)C(C)C)[nH]c4c3)ccc2-5)N(C(=O)[C@H](NC(=O)OC)c2ccccc2)C1` [Example 556]: the EC50 in assay [1] is greater than 44 nM; in assay [2] it was 0.001 to 0.999 nM; in assay [4], 0.001 to 0.99 nM; in assay [5], greater than 44 nM; in assay [6], 0.001 to 0.999 nM.

As to `COC(=O)N[C@H](C(=O)N1C[C@@H](COC(F)F)C[C@H]1c1ncc(-c2ccc3c(c2)COc2cc4c(ccc5nc([C@@H]6CC[C@H](C)N6C(=O)[C@@H](NC(=O)OC)C(C)C)[nH]c54)cc2-3)[nH]1)C(C)C` [Example 632], the EC50 in assay [1] was 0.001 to 0.999 nM; in assay [2], 0.001 to 0.999 nM; in assay [3], 0.008 nM; in assay [5], 0.001 to 0.999 nM; in assay [6] it was 0.001 to 0.999 nM.

Consider `CCC(C)[C@H](NC(=O)OC)C(=O)N1C[C@@H](COC)C[C@H]1c1nc2ccc3cc4c(cc3c2[nH]1)OCc1cc(-c2cnc([C@@H]3C[C@H](C)CN3C(=O)[C@@H](NC(=O)OC)[C@@H](C)CC)[nH]2)ccc1-4` (some centres unmarked) [Example 640], for which the EC50 in assay [1] is 0.001 to 0.999 nM; in assay [2], 0.001 to 0.999 nM; in assay [3] it was 0.015 nM; in assay [5] it was 0.001 to 0.999 nM; in assay [6] it was 0.001 to 0.999 nM.

On to `CC[C@H](C)[C@H](NC(=O)OC)C(=O)N1[C@@H](C)CC[C@H]1c1ncc(-c2ccc3c(c2)COc2cc4c(ccc5nc([C@@H]6C[C@H](COC)CN6C(=O)[C@@H](NC(=O)OC)C(C)C)[nH]c54)cc2-3)[nH]1` [Example 638], for which the EC50 in assay [1] is 0.001 to 0.999 nM; in assay [2], 0.001 to 0.999 nM; in assay [3] it was 0.009 nM; in assay [5], 0.001 to 0.999 nM; in assay [6], 0.001 to 0.999 nM.

Take `CC[C@H](C)[C@H](NC(=O)OC)C(=O)N1C[C@@H](COC)C[C@H]1c1nc2ccc3cc4c(cc3c2[nH]1)OCc1cc(-c2cnc([C@@H]3CC[C@H](C)N3C(=O)[C@@H](NC(=O)OC)C(C)C)[nH]2)ccc1-4` [Example 623]: the EC50 is 0.001 to 0.999 nM in assay [1]; 0.001 to 0.999 nM in assay [2]; 0.006 nM in assay [3]; 0.001 to 0.999 nM in assay [5]; 0.001 to 0.999 nM in assay [6].

As for `COC(=O)N[C@H](C(=O)N1C[C@@H](COC(F)F)C[C@H]1c1nc2ccc3cc4c(cc3c2[nH]1)OCc1cc(-c2cnc([C@@H]3CC[C@H](C)N3C(=O)[C@@H](NC(=O)OC)C(C)C)[nH]2)ccc1-4)C(C)C` [Example 631], the EC50 in assay [1] was 0.001 to 0.999 nM; in assay [2], 0.001 to 0.999 nM; in assay [3], 0.006 nM; in assay [7], greater than 5 nM; in assay [5] it was 0.001 to 0.999 nM; in assay [6], 0.001 to 0.999 nM.

As for `COC(=O)N[C@H](C(=O)N1[C@@H](C)CC[C@H]1c1ncc(-c2ccc3c(c2)COc2cc4c(ccc5nc([C@@H]6CCCN6C(=O)[C@H](N)c6ccccc6)[nH]c54)cc2-3)[nH]1)C(C)C` [Example 604], the EC50 was 0.001 to 0.999 nM in assay [1]; 0.001 to 0.999 nM in assay [2]; 0.02 nM in assay [3]; 0.001 to 0.999 nM in assay [5]; 0.001 to 0.999 nM in assay [6].

Consider `CC[C@H](C)[C@H](NC(=O)OC)C(=O)N1C[C@@H](C)C[C@H]1c1ncc(-c2ccc3c(c2)COc2cc4c(ccc5nc([C@@H]6C[C@H](COC)CN6C(=O)[C@@H](NC(=O)OC)C(C)C)[nH]c54)cc2-3)[nH]1` [Example 642], for which the EC50 is 0.001 to 0.999 nM in assay [1]; 0.001 to 0.999 nM in assay [2]; 0.014 nM in assay [3]; 0.001 to 0.999 nM in assay [5]; 0.001 to 0.999 nM in assay [6].

In the case of `COC[C@H]1C[C@@H](c2nc3ccc4cc5c(cc4c3[nH]2)OCc2cc(-c3cnc([C@@H]4C[C@H](C)CN4C(=O)C(NC(=O)OC)[C@H](C)OC)[nH]3)ccc2-5)N(C(=O)[C@@H](NC(=O)OC)[C@H](C)OC)C1` (some centres unmarked) [Example 620], the EC50 in assay [1] was 0.001 to 0.999 nM; in assay [2] it was 0.001 to 0.999 nM; in assay [3], 0.081 nM; in assay [5] it was 0.001 to 0.999 nM; in assay [6], 0.001 to 0.999 nM.

The values are drawn from patent publication US10344019B2 (priority 2010, dated 2019).
